Experimental data reported in the supplement of paper PMC11451515.

Test system: NOMO1
Experiment: cell viability relative to DMSO control; higher = less cytotoxic
Settings: 48 h
How it was run: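 NOMO1 or SEM (500 cells/well) or P12-Ichikawa (1000 cells/well) leukemia cells were adapted for at least four passages in each medium. They were seeded in 1536-well plates (5 μl) and pin-dosed with library compounds in DMSO over an 11-point threefold series, 47 μM to 0.79 nM. CellTiter-Glo One luminescence was read after 48 h at 37°C. Viability is the per-plate percentage relative to DMSO wells, with cell-free wells as background.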

[1] = RPMI 5 mM glucose + 10% FBS, 0.000781 µM
[2] = RPMI 5 mM glucose + 10% FBS, 0.00234 µM
[3] = RPMI 5 mM glucose + 10% FBS, 0.00702 µM
[4] = RPMI 5 mM glucose + 10% FBS, 0.0211 µM
[5] = RPMI 5 mM glucose + 10% FBS, 0.0632 µM
[6] = RPMI 5 mM glucose + 10% FBS, 0.19 µM
[7] = RPMI 5 mM glucose + 10% FBS, 0.569 µM
[8] = RPMI 5 mM glucose + 10% FBS, 1.71 µM
[9] = RPMI 5 mM glucose + 10% FBS, 5.12 µM
[10] = RPMI 5 mM glucose + 10% FBS, 15.4 µM
[11] = RPMI 5 mM glucose + 10% FBS, 46.1 µM
[12] = RPMI 5 mM glucose + 10% dialyzed FBS, 0.000781 µM
[13] = RPMI 5 mM glucose + 10% dialyzed FBS, 0.00234 µM
[14] = RPMI 5 mM glucose + 10% dialyzed FBS, 0.00702 µM
[15] = RPMI 5 mM glucose + 10% dialyzed FBS, 0.0211 µM
[16] = RPMI 5 mM glucose + 10% dialyzed FBS, 0.0632 µM
[17] = RPMI 5 mM glucose + 10% dialyzed FBS, 0.19 µM
[18] = RPMI 5 mM glucose + 10% dialyzed FBS, 0.569 µM
[19] = RPMI 5 mM glucose + 10% dialyzed FBS, 1.71 µM
[20] = RPMI 5 mM glucose + 10% dialyzed FBS, 5.12 µM
[21] = RPMI 5 mM glucose + 10% dialyzed FBS, 15.4 µM
[22] = RPMI 5 mM glucose + 10% dialyzed FBS, 46.1 µM
[23] = HPLM + 10% dialyzed FBS, 0.000781 µM
[24] = HPLM + 10% dialyzed FBS, 0.00234 µM
[25] = HPLM + 10% dialyzed FBS, 0.00702 µM
[26] = HPLM + 10% dialyzed FBS, 0.0211 µM
[27] = HPLM + 10% dialyzed FBS, 0.0632 µM
[28] = HPLM + 10% dialyzed FBS, 0.19 µM
[29] = HPLM + 10% dialyzed FBS, 0.569 µM
[30] = HPLM + 10% dialyzed FBS, 1.71 µM
[31] = HPLM + 10% dialyzed FBS, 5.12 µM
[32] = HPLM + 10% dialyzed FBS, 15.4 µM
[33] = HPLM + 10% dialyzed FBS, 46.1 µM

| SMILES | cell viability [1] [%] | cell viability [2] [%] | cell viability [3] [%] | cell viability [4] [%] | cell viability [5] [%] | cell viability [6] [%] | cell viability [7] [%] | cell viability [8] [%] | cell viability [9] [%] | cell viability [10] [%] | cell viability [11] [%] | cell viability [12] [%] | cell viability [13] [%] | cell viability [14] [%] | cell viability [15] [%] | cell viability [16] [%] | cell viability [17] [%] | cell viability [18] [%] | cell viability [19] [%] | cell viability [20] [%] | cell viability [21] [%] | cell viability [22] [%] | cell viability [23] [%] | cell viability [24] [%] | cell viability [25] [%] | cell viability [26] [%] | cell viability [27] [%] | cell viability [28] [%] | cell viability [29] [%] | cell viability [30] [%] | cell viability [31] [%] | cell viability [32] [%] | cell viability [33] [%] |
| --- | --- | --- | --- | --- | --- | --- | --- | --- | --- | --- | --- | --- | --- | --- | --- | --- | --- | --- | --- | --- | --- | --- | --- | --- | --- | --- | --- | --- | --- | --- | --- | --- | --- |
| C[N]1N=CC=C1C/2=C(\C)N(C(=O)C(=C2)/C(=O)NCC3=NC=C(C=C3)[S+](C)([O-])=O)C4=CC=CC(=C4)C(F)(F)F | 105 | 127 | 98.9 | 107 | 118 | 102 | 102 | 97.5 | 100 | 96.2 | 93.5 | 99 | 106 | 101 | 113 | 111 | 123 | 95.7 | 79.7 | 79.7 | 90.1 | 103 |  |  |  |  |  |  |  |  |  |  |  |
| N=C(N)NC(=N)N1CCOCC1 | 95.2 | 93.1 | 115 | 101 | 111 | 106 | 102 | 97.1 | 98.7 | 84.4 | 87.4 | 96.4 | 93.3 | 89.8 | 88.8 | 106 | 104 | 101 | 87.2 | 87.9 | 86 | 89.7 | 102 | 84.7 | 106 | 103 | 106 | 111 | 111 | 103 | 103 | 89.6 | 87.1 |
| CN(C)[C@@H](CCOc1cccc2ccccc12)c1ccccc1 | 105 | 112 | 106 | 109 | 119 | 106 | 110 | 113 | 99.8 | 98.4 | 68.9 | 113 | 114 | 114 | 111 | 106 | 99 | 119 | 113 | 114 | 92.7 | 52.1 | 110 | 117 | 129 | 103 | 124 | 114 | 110 | 97.5 | 86.4 | 106 | 70.6 |
| COC(=O)[C@H](c1ccccc1Cl)N1CCc2sccc2C1 | 87.8 | 109 | 89.1 | 92.3 | 103 | 93.7 | 97.4 | 21.7 | 20.9 | 15.9 | 14 | 81 | 90.5 | 101 | 94.4 | 100 | 103 | 102 | 36.6 | 22.8 | 23.6 | 22.2 | 103 | 110 | 127 | 117 | 109 | 104 | 117 | 37.4 | 39.5 | 24.8 | 24.8 |
| COc1cc2ncn(-c3cc(OCc4ccccc4C(F)(F)F)c(C(N)=O)s3)c2cc1OC | 99.2 | 111 | 116 | 111 | 120 | 118 | 110 | 94.9 | 26.3 | 24.6 | 17.6 | 108 | 122 | 112 | 113 | 112 | 123 | 117 | 85.2 | 32.4 | 30.1 | 24.9 | 124 | 117 | 126 | 117 | 120 | 115 | 89.2 | 46.1 | 42.2 | 41.2 | 24.9 |
| OCCN(CCO)c1nc(N2CCCCC2)c2nc(N(CCO)CCO)nc(N3CCCCC3)c2n1 | 120 | 129 | 119 | 107 | 114 | 113 | 105 | 114 | 111 | 113 | 92.4 | 113 | 115 | 117 | 115 | 113 | 114 | 121 | 114 | 114 | 110 | 68 | 128 | 112 | 104 | 128 | 115 | 112 | 120 | 111 | 94.5 | 105 | 46.4 |
| O=C(O)Cc1cccc(OCCCN(Cc2cccc(C(F)(F)F)c2Cl)CC(c2ccccc2)c2ccccc2)c1 |  |  |  |  |  |  |  |  |  |  |  |  |  |  |  |  |  |  |  |  |  |  | 122 | 123 | 136 | 110 | 114 | 108 | 118 | 99.3 | 106 | 118 | 114 |
| COc1ccc(C2(C#N)CCC(C(=O)O)CC2)cc1OC1CCCC1 (centres undefined) | 82.4 | 91.8 | 84.9 | 87.5 | 94.1 | 96.8 | 96.3 | 85.7 | 101 | 89.6 | 90.6 | 99.5 | 105 | 98.3 | 102 | 98.2 | 95 | 107 | 101 | 101 | 100 | 105 | 91 | 109 | 95 | 116 | 120 | 123 | 113 | 113 | 111 | 102 | 108 |
| NC[C@H]1O[C@H](O[C@H]2[C@H](O)[C@@H](O[C@H]3O[C@H](CO)[C@@H](O)[C@H](N)[C@H]3O)[C@H](N)C[C@@H]2N)[C@H](N)C[C@@H]1O | 109 | 103 | 101 | 110 | 104 | 103 | 105 | 94.6 | 104 | 101 | 107 | 95.3 | 101 | 95.2 | 96 | 96.6 | 99.7 | 94.3 | 89.7 | 81.7 | 97.2 | 93.4 | 103 | 99.1 | 122 | 92.5 | 110 | 106 | 112 | 102 | 102 | 91.9 | 106 |
